Converted amounts (≈) assume the structure as drawn.
Experiments:
Assay type in all cases: functional
[1] = tested on: Mycobacterium tuberculosis; assay: Antibacterial activity against HYG cassette-positive Mycobacterium tuberculosis BAS5 harboring embB M306V mutant gene by modified conventional agar proportion method
[2] = tested on: Mycobacterium tuberculosis; assay: Antibacterial activity against Mycobacterium tuberculosis Rv17 harboring embB ATG-GTG (M306V) mutation in embB by modified conventional agar proportion method
[3] = tested on: Mycobacterium tuberculosis; assay: Antibacterial activity against HYG cassette-negative EMB-resistant Mycobacterium tuberculosis B54 harboring embB M306I mutant gene by modified conventional agar proportion method
[4] = tested on: Mycobacterium tuberculosis; assay: Antibacterial activity against Mycobacterium tuberculosis Rv21 harboring embB GAT-TAT (D328Y) mutation in embB by modified conventional agar proportion method
[5] = tested on: Mycobacterium tuberculosis; assay: Antibacterial activity against HYG cassette-positive Mycobacterium tuberculosis B5402 harboring embB M306I mutant gene by modified conventional agar proportion method
[6] = tested on: Mycobacterium tuberculosis; assay: Antibacterial activity against HYG cassette-positive Mycobacterium tuberculosis Rv4402 harboring embB M306I mutant gene by modified conventional agar proportion method
[7] = tested on: Mycobacterium tuberculosis; assay: Antibacterial activity against Mycobacterium tuberculosis Rv39 harboring embB GGC-CGC (G324R) mutation in embB by modified conventional agar proportion method
[8] = tested on: Mycobacterium tuberculosis; assay: Antibacterial activity against Mycobacterium tuberculosis Rv11 harboring embB ATG-CTG (M306L) mutation in embB by modified conventional agar proportion method
[9] = tested on: Mycobacterium tuberculosis; assay: Antibacterial activity against HYG cassette-positive Mycobacterium tuberculosis RvAS3 harboring embB M306I mutant gene by modified conventional agar proportion method
[10] = tested on: Mycobacterium tuberculosis; assay: Antibacterial activity against HYG cassette-positive Mycobacterium tuberculosis Rv8102 harboring embB M306V mutant gene by modified conventional agar proportion method
[11] = tested on: Mycobacterium tuberculosis; assay: Antibacterial activity against HYG cassette-positive Mycobacterium tuberculosis RvAS4 harboring embB M306I mutant gene by modified conventional agar proportion method
[12] = tested on: Mycobacterium tuberculosis; assay: Antibacterial activity against Mycobacterium tuberculosis Rv44 harboring embB ATG-ATA (M306I) mutation in embB by modified conventional agar proportion method
[13] = tested on: Mycobacterium tuberculosis; assay: Antibacterial activity against Mycobacterium tuberculosis B54 harboring embB ATG-ATA (M306I) mutation in embB by modified conventional agar proportion method
[14] = tested on: Mycobacterium tuberculosis; assay: Antibacterial activity against Mycobacterium tuberculosis B52 harboring embB ATG-GTG (M306V) mutation in embB by modified conventional agar proportion method
[15] = tested on: Mycobacterium tuberculosis; assay: Antibacterial activity against HYG cassette-negative EMB-resistant Mycobacterium tuberculosis Rv8 harboring embB M306V mutant gene by modified conventional agar proportion method
[16] = tested on: Mycobacterium tuberculosis; assay: Antibacterial activity against Mycobacterium tuberculosis B84 harboring embB ATG-ATC (M306I) mutation in embB by modified conventional agar proportion method
[17] = tested on: Mycobacterium tuberculosis; assay: Antibacterial activity against HYG cassette-positive Mycobacterium tuberculosis BAS7 harboring embB M306I mutant gene by modified conventional agar proportion method
[18] = tested on: Mycobacterium tuberculosis; assay: Antibacterial activity against Mycobacterium tuberculosis B51 harboring embB ATG-ACG (M306T) mutation in embB by modified conventional agar proportion method
[19] = tested on: Mycobacterium tuberculosis; assay: Antibacterial activity against HYG cassette-positive Mycobacterium tuberculosis RvAS2 harboring embB M306V mutant gene by modified conventional agar proportion method
[20] = tested on: Mycobacterium tuberculosis; assay: Antibacterial activity against HYG cassette-negative EMB-resistant Mycobacterium tuberculosis Rv44 harboring embB M306I mutant gene by modified conventional agar proportion method
[21] = tested on: Mycobacterium tuberculosis; assay: Antibacterial activity against Mycobacterium tuberculosis B99 harboring embB CGC-CAC (R321H) mutation in embB by modified conventional agar proportion method
[22] = tested on: Mycobacterium tuberculosis; assay: Antibacterial activity against Mycobacterium tuberculosis B53 harboring embB GAT-TAT (D328Y) mutation in embB by modified conventional agar proportion method
[23] = tested on: Mycobacterium tuberculosis; assay: Antibacterial activity against Mycobacterium tuberculosis B92 harboring embB GAC-GCC (D354A) mutation in embB by modified conventional agar proportion method
[24] = tested on: Mycobacterium tuberculosis; assay: Antibacterial activity against Mycobacterium tuberculosis Rv23 harboring embB ATG-GTG (M306V) mutation in embB by modified conventional agar proportion method
[25] = tested on: Mycobacterium tuberculosis; assay: Antibacterial activity against HYG cassette-positive Mycobacterium tuberculosis BAS6 harboring embB M306V mutant gene by modified conventional agar proportion method
[26] = tested on: Mycobacterium tuberculosis; assay: Antibacterial activity against Mycobacterium tuberculosis B97 harboring embB ATG-ATC (M306I) mutation in embB by modified conventional agar proportion method
[27] = tested on: Mycobacterium tuberculosis; assay: Antibacterial activity against HYG cassette-positive Mycobacterium tuberculosis BAS8 harboring embB M306I mutant gene by modified conventional agar proportion method
[28] = tested on: Mycobacterium tuberculosis; assay: Antibacterial activity against Mycobacterium tuberculosis Rv31 harboring embB GAT-TAT (D328Y) mutation in embB by modified conventional agar proportion method
[29] = tested on: Mycobacterium tuberculosis; assay: Antibacterial activity against Mycobacterium tuberculosis B59 harboring embB ATG-GTG (M306V) mutation in embB by modified conventional agar proportion method
[30] = tested on: Mycobacterium tuberculosis; assay: Antibacterial activity against Mycobacterium tuberculosis B74 harboring embB GAC-GGC (D300G) mutation in embB by modified conventional agar proportion method
[31] = tested on: Mycobacterium tuberculosis; assay: Antibacterial activity against Mycobacterium tuberculosis Rv8 harboring embB ATG-GTG (M306V) mutation in embB by modified conventional agar proportion method
[32] = tested on: Mycobacterium tuberculosis; assay: Antibacterial activity against Mycobacterium tuberculosis Rv18 harboring embB ATG-GTG (M306V) mutation in embB by modified conventional agar proportion method
[33] = tested on: Mycobacterium tuberculosis; assay: Antibacterial activity against Mycobacterium tuberculosis B95 harboring embB ATG-ATA (M306I) mutation in embB by modified conventional agar proportion method
[34] = tested on: Mycobacterium tuberculosis; assay: Antibacterial activity against Mycobacterium tuberculosis B55 harboring embB ATG-GTG (M306V) mutation in embB by modified conventional agar proportion method
[35] = tested on: Mycobacterium tuberculosis; assay: Antibacterial activity against Mycobacterium tuberculosis B79 harboring embB GGC-CGC (G324R) mutation in embB by modified conventional agar proportion method
[36] = tested on: Mycobacterium tuberculosis; assay: Antibacterial activity against Mycobacterium tuberculosis B64 harboring embB ATG-GTG (M306V) mutation in embB by modified conventional agar proportion method
[37] = tested on: Mycobacterium tuberculosis; assay: Antibacterial activity against Mycobacterium tuberculosis B56 harboring embB ATG-GTG (M306V) mutation in embB by modified conventional agar proportion method
[38] = tested on: Mycobacterium tuberculosis; assay: Antibacterial activity against Mycobacterium tuberculosis Rv7 harboring embB ATG-GTG (M306V) mutation in embB by modified conventional agar proportion method
[39] = tested on: Mycobacterium tuberculosis; assay: Antibacterial activity against Mycobacterium tuberculosis B70 harboring embB ATG-ATC (M306I) mutation in embB by modified conventional agar proportion method
[40] = tested on: Mycobacterium tuberculosis; assay: Antibacterial activity against HYG cassette-positive Mycobacterium tuberculosis RvAS1 harboring embB M306V mutant gene by modified conventional agar proportion method
[41] = tested on: Mycobacterium tuberculosis; assay: Antibacterial activity against HYG cassette-negative EMB-resistant Mycobacterium tuberculosis B52 harboring embB M306V mutant gene by modified conventional agar proportion method
[42] = tested on: Mycobacterium tuberculosis; assay: Antibacterial activity against HYG cassette-positive Mycobacterium tuberculosis B5202 harboring embB M306V mutant gene by modified conventional agar proportion method
[43] = tested on: Mycobacterium tuberculosis; assay: Antibacterial activity against Mycobacterium tuberculosis B85 harboring embB ATG-ATA (M306I) mutation in embB by modified conventional agar proportion method
[44] = tested on: Mycobacterium tuberculosis; assay: Antibacterial activity against Mycobacterium tuberculosis B96 harboring embB GAT-TAT (D328Y) mutation in embB by modified conventional agar proportion method

Compound `CC[C@@H](CO)NCCN[C@@H](CC)CO` [ETHAMBUTOL] has an MIC [1] of 20 µg/mL (≈ 97.9 µM), an MIC [2] of 20 µg/mL (≈ 97.9 µM) and an MIC [3] of 20 µg/mL (≈ 97.9 µM). For the same compound, the MIC [4] was 20 µg/mL (≈ 97.9 µM), the MIC [5] was 20 µg/mL (≈ 97.9 µM) and the MIC [6] was 20 µg/mL (≈ 97.9 µM). The MIC [7] was 20 µg/mL (≈ 97.9 µM), the MIC [8] was 20 µg/mL (≈ 97.9 µM) and the MIC [9] was 10 µg/mL (≈ 48.9 µM). The MIC [10] was 20 µg/mL (≈ 97.9 µM), the MIC [11] was 10 µg/mL (≈ 48.9 µM) and the MIC [12] was 20 µg/mL (≈ 97.9 µM). It also gave an MIC [13] of 20 µg/mL (≈ 97.9 µM), an MIC [14] of 20 µg/mL (≈ 97.9 µM) and an MIC [15] of 20 µg/mL (≈ 97.9 µM). For the same compound, the MIC [16] was 20 µg/mL (≈ 97.9 µM), the MIC [17] was 10 µg/mL (≈ 48.9 µM) and the MIC [18] was 20 µg/mL (≈ 97.9 µM). The MIC [19] was 20 µg/mL (≈ 97.9 µM), the MIC [20] was 20 µg/mL (≈ 97.9 µM) and the MIC [21] was 10 µg/mL (≈ 48.9 µM). For the same compound, the MIC [22] was 20 µg/mL (≈ 97.9 µM), the MIC [23] was 20 µg/mL (≈ 97.9 µM) and the MIC [24] was 20 µg/mL (≈ 97.9 µM). The MIC [25] was 20 µg/mL (≈ 97.9 µM), the MIC [26] was 20 µg/mL (≈ 97.9 µM) and the MIC [27] was 10 µg/mL (≈ 48.9 µM). The MIC [28] was 20 µg/mL (≈ 97.9 µM), the MIC [29] was 20 µg/mL (≈ 97.9 µM) and the MIC [30] was 10 µg/mL (≈ 48.9 µM). It also gave an MIC [31] of 20 µg/mL (≈ 97.9 µM), an MIC [32] of 20 µg/mL (≈ 97.9 µM) and an MIC [33] of 20 µg/mL (≈ 97.9 µM). For the same compound, the MIC [34] was 20 µg/mL (≈ 97.9 µM), the MIC [35] was 20 µg/mL (≈ 97.9 µM) and the MIC [36] was 20 µg/mL (≈ 97.9 µM). The MIC [37] was 20 µg/mL (≈ 97.9 µM), the MIC [38] was 20 µg/mL (≈ 97.9 µM) and the MIC [39] was 40 µg/mL (≈ 196 µM). It also gave an MIC [40] of 20 µg/mL (≈ 97.9 µM), an MIC [41] of 20 µg/mL (≈ 97.9 µM) and an MIC [42] of 20 µg/mL (≈ 97.9 µM). It also gave an MIC [43] of 20 µg/mL (≈ 97.9 µM) and an MIC [44] of 20 µg/mL (≈ 97.9 µM).

Reference: ChEMBL document CHEMBL1629650 (2009)
